Several values for one entry are separate records, joined by “and”; a condition that tells them apart may be missing. Identical values can stand only once. ± gives the expanded uncertainty stated by the source.
How the values were obtained:
[1] = for vapor or sublimation pressure: Calculated from knudsen effusion weight loss; for Triple point temperature: DTA
[2] = Molar enthalpy of transition or fusion; conditions: DSC
[3] = molar heat capacity at constant pressure; conditions: 101.33 kPa, Small sample (50 mg) DSC

O=C1NCCN1 [2-imidazolidinone]
Conditions	molar heat capacity at constant pressure [J/K/mol]	vapor or sublimation pressure
[1], 327.2 K, Crystal 2	–	0.0001064 ± 2e-05 kPa and 0.0001074 ± 2e-05 kPa and 0.0001035 ± 2e-05 kPa
[1], 329.21 K, Crystal 2	–	0.0001364 ± 2.1e-05 kPa and 0.0001328 ± 2.1e-05 kPa and 0.0001305 ± 2.1e-05 kPa
[1], 331.14 K, Crystal 2	–	0.0001664 ± 2.1e-05 kPa and 0.0001631 ± 2.1e-05 kPa and 0.0001658 ± 2.1e-05 kPa
[1], 333.19 K, Crystal 2	–	0.0002142 ± 2.1e-05 kPa and 0.0002049 ± 2.1e-05 kPa and 0.0002095 ± 2.1e-05 kPa
[1], 335.21 K, Crystal 2	–	0.0002681 ± 2.2e-05 kPa and 0.0002592 ± 2.2e-05 kPa and 0.0002535 ± 2.2e-05 kPa
[1], 337.15 K, Crystal 2	–	0.0003214 ± 2.3e-05 kPa and 0.000301 ± 2.3e-05 kPa and 0.00032 ± 2.3e-05 kPa
[1], 339.2 K, Crystal 2	–	0.0003984 ± 2.4e-05 kPa and 0.0003883 ± 2.4e-05 kPa
[1], 341.21 K, Crystal 2	–	0.000457 ± 2.6e-05 kPa and 0.0004831 ± 2.6e-05 kPa and 0.0004721 ± 2.6e-05 kPa
[1], 343.14 K, Crystal 2	–	0.0005644 ± 2.8e-05 kPa and 0.0005525 ± 2.8e-05 kPa and 0.0005387 ± 2.8e-05 kPa
[1], 345.19 K, Crystal 2	–	0.0006621 ± 3.1e-05 kPa and 0.0006672 ± 3.1e-05 kPa and 0.0006399 ± 3e-05 kPa
[1], 347.2 K, Crystal 1	–	0.0007833 ± 3.4e-05 kPa and 0.0008114 ± 3.5e-05 kPa and 0.0007693 ± 3.4e-05 kPa
[1], 349.16 K, Crystal 1	–	0.0009806 ± 4e-05 kPa and 0.0009769 ± 4e-05 kPa and 0.0009472 ± 3.9e-05 kPa
[3], 268.15 K, Crystal 2	99.4 ± 2	–
[3], 270.15 K, Crystal 2	100 ± 2	–
[3], 275.15 K, Crystal 2	101.5 ± 2	–
[3], 280.15 K, Crystal 2	102.7 ± 2.1	–
[3], 285.15 K, Crystal 2	103.9 ± 2.1	–
[3], 290.15 K, Crystal 2	105.1 ± 2.1	–
[3], 295.15 K, Crystal 2	106.3 ± 2.1	–
[3], 298.15 K, Crystal 2	107.7 ± 2.2	–
[3], 300.15 K, Crystal 2	108.5 ± 2.2	–
[3], 305.15 K, Crystal 2	110.2 ± 2.2	–
[3], 310.15 K, Crystal 2	111.9 ± 2.2	–
[3], 315.15 K, Crystal 2	113.2 ± 2.3	–
[3], 320.15 K, Crystal 2	115.4 ± 2.3	–
[3], 325.15 K, Crystal 2	117.3 ± 2.3	–
[3], 330.15 K, Crystal 2	119 ± 2.4	–
[3], 335.15 K, Crystal 2	120.9 ± 2.4	–
[3], 338.15 K, Crystal 2	122.1 ± 2.4	–

Conditions	Molar enthalpy of transition or fusion, [2] [kcal/mol]	Triple point temperature, [1] [K]
Crystal 1	3.15 ± 0.0956	404.8 ± 0.5
Crystal 2	0.908 ± 0.0717	346.6 ± 0.7

O=C1NCCCN1 [tetrahydropyrimidin-2(1H)-one]
Crystal
Conditions	molar heat capacity at constant pressure [J/K/mol]	vapor or sublimation pressure
[1], 363.19 K	–	0.0001292 ± 2.1e-05 kPa and 0.0001261 ± 2.1e-05 kPa and 0.0001216 ± 2.1e-05 kPa
[1], 365.18 K	–	0.0001581 ± 2.1e-05 kPa and 0.0001562 ± 2.1e-05 kPa and 0.0001488 ± 2.1e-05 kPa
[1], 367.14 K	–	0.0001903 ± 2.1e-05 kPa and 0.0001913 ± 2.1e-05 kPa and 0.0001858 ± 2.1e-05 kPa
[1], 369.19 K	–	0.0002232 ± 2.2e-05 kPa and 0.0002283 ± 2.2e-05 kPa
[1], 371.17 K	–	0.000271 ± 2.2e-05 kPa and 0.0002737 ± 2.2e-05 kPa and 0.0002643 ± 2.2e-05 kPa
[1], 373.15 K	–	0.0003343 ± 2.3e-05 kPa and 0.0003328 ± 2.3e-05 kPa
[1], 375.18 K	–	0.0003988 ± 2.4e-05 kPa and 0.000402 ± 2.5e-05 kPa
[1], 377.18 K	–	0.0004813 ± 2.6e-05 kPa and 0.0004804 ± 2.6e-05 kPa and 0.0004655 ± 2.6e-05 kPa
[1], 379.16 K	–	0.0005717 ± 2.9e-05 kPa and 0.0005887 ± 2.9e-05 kPa and 0.0005753 ± 2.9e-05 kPa
[1], 381.18 K	–	0.000719 ± 3.2e-05 kPa and 0.000702 ± 3.2e-05 kPa and 0.000673 ± 3.1e-05 kPa
[1], 383.18 K	–	0.0008587 ± 3.6e-05 kPa and 0.0008463 ± 3.6e-05 kPa
[1], 385.16 K	–	0.001027 ± 8e-05 kPa and 0.0009846 ± 4e-05 kPa
[3], 268.15 K	117.2 ± 2.3	–
[3], 270.15 K	118 ± 2.4	–
[3], 275.15 K	120.1 ± 2.4	–
[3], 280.15 K	122.2 ± 2.4	–
[3], 285.15 K	124.1 ± 2.5	–
[3], 290.15 K	126.2 ± 2.5	–
[3], 295.15 K	128.1 ± 2.6	–
[3], 298.15 K	129.5 ± 2.6	–
[3], 300.15 K	130.4 ± 2.6	–
[3], 305.15 K	132.7 ± 2.7	–
[3], 310.15 K	135.3 ± 2.7	–
[3], 315.15 K	137.8 ± 2.8	–
[3], 320.15 K	140.2 ± 2.8	–
[3], 325.15 K	142.6 ± 2.9	–
[3], 330.15 K	145.1 ± 2.9	–
[3], 335.15 K	147.3 ± 2.9	–
[3], 340.15 K	150.1 ± 3	–
[3], 345.15 K	152.2 ± 3	–
[3], 350.15 K	155.1 ± 3.1	–
[3], 355.15 K	157.2 ± 3.1	–
[3], 360.15 K	159.9 ± 3.2	–
[3], 365.15 K	163.8 ± 3.3	–
[3], 370.15 K	166.5 ± 3.3	–
[3], 375.15 K	169.8 ± 3.4	–
[3], 380.15 K	172.4 ± 3.4	–
[3], 385.15 K	175.1 ± 3.5	–
[3], 390.15 K	177.3 ± 3.5	–
[3], 395.15 K	180.4 ± 3.6	–
[3], 400.15 K	183.3 ± 3.7	–
[3], 405.15 K	186.5 ± 3.7	–
[3], 410.15 K	189.8 ± 3.8	–
[3], 415.15 K	193.9 ± 3.9	–
[3], 420.15 K	197.1 ± 3.9	–
[3], 425.15 K	200.8 ± 4	–
[3], 430.15 K	202.7 ± 4.1	–
[3], 435.15 K	204.9 ± 4.1	–
[3], 440.15 K	207.5 ± 4.2	–
[3], 445.15 K	210.3 ± 4.2	–
[3], 450.15 K	213.3 ± 4.3	–
[3], 455.15 K	215.9 ± 4.3	–
[3], 460.15 K	219.1 ± 4.4	–
[3], 465.15 K	222.2 ± 4.4	–
[3], 470.15 K	224.9 ± 4.5	–

From the NIST ThermoML archive (doi:10.1016/j.jct.2007.08.004)
